What was measured:
[1] = Oral bioavailability in rat; type: ADME, organism-based; settings: in vivo
Prothrombin = Prothrombin (Homo sapiens, UniProt P00734); experiment: Inhibition of human alpha-thrombin
[2] = Inhibition of human beta-tryptase
Cathepsin K = target: T1, Cathepsin K (Homo sapiens, UniProt P43235); experiment: Inhibition of human recombinant cathepsin K
T1 sequence (P43235 whole entry): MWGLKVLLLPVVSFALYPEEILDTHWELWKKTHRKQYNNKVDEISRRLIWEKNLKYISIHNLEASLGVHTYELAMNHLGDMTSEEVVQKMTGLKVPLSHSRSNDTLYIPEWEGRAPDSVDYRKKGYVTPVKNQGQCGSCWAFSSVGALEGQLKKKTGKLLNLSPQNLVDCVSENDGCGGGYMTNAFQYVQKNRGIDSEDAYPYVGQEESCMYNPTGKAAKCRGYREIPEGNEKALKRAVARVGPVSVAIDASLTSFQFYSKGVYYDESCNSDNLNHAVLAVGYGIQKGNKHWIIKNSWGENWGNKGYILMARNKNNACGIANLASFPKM

Cathepsin B = Cathepsin B (Homo sapiens, UniProt P07858); experiment: Inhibition of human liver cathepsin B
Procathepsin L = Procathepsin L (Homo sapiens, UniProt P07711); experiment: Inhibition of human recombinant cathepsin L
Cathepsin S = Cathepsin S (Homo sapiens, UniProt P25774); experiment: Inhibition of human recombinant cathepsin S
[3] = Inhibition of HDAC
[4] = Inhibition of bovine trypsin; set-up: species or system Bos taurus
[5] = Selectivity for human alpha-thrombin over bovine trypsin
Prolyl endopeptidase = Prolyl endopeptidase (Sus scrofa, UniProt P23687)
[6] = Selectivity for rat FAAH over triacylglycerol hydrolase

Sequence of Cathepsin S (P25774 whole entry): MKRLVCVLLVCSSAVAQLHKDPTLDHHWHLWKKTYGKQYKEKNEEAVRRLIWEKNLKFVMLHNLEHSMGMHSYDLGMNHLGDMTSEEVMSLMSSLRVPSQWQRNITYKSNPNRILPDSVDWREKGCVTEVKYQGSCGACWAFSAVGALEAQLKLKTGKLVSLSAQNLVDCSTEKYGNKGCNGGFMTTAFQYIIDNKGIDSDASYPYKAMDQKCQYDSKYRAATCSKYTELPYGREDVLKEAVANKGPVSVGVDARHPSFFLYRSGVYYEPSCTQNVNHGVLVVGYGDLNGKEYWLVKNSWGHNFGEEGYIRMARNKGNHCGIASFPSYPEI
Sequence of Prolyl endopeptidase (P23687 whole entry): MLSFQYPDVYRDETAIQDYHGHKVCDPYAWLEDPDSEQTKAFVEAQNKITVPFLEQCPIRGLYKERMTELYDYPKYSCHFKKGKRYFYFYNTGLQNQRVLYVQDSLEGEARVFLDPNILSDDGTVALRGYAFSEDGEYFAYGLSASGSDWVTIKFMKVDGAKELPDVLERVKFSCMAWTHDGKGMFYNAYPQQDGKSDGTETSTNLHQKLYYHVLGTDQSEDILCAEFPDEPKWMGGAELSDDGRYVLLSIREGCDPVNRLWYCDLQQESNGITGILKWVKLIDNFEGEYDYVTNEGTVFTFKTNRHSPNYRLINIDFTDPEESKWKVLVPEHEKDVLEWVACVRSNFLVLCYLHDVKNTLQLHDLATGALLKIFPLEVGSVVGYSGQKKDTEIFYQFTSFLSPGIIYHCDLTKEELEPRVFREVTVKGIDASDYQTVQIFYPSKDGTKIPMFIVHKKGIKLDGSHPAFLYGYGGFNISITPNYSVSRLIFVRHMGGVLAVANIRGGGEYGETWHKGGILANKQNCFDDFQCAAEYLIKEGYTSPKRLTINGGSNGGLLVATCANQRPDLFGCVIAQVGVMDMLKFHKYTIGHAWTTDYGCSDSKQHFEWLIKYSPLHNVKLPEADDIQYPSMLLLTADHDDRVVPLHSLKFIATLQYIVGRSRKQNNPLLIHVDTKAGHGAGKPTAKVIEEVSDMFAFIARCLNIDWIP
Sequence of Procathepsin L (P07711 whole entry): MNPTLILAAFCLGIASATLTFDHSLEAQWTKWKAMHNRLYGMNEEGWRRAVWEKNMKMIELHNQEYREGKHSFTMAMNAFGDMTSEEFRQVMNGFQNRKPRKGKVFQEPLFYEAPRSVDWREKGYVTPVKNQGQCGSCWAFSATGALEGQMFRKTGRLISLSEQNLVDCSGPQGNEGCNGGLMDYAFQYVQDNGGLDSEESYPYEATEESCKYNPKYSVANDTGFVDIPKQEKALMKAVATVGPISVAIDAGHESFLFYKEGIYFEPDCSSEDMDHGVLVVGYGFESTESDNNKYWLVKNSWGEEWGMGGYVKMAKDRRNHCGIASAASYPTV

With `NCCCC[C@H](NC(=O)[C@@H]1CCCN1C(=O)[C@H](N)CC1CCCCC1)C(=O)c1nccs1` as the molecule, how does the bioavailability [1] read?
The bioavailability was 23%.

Which IC50 (Prothrombin) does the source give for `CC(=O)N1CCC[C@H]1C(=O)N[C@@H](CCCN=C(N)N)C(=O)c1nc2ccccc2s1` here?
The IC50 was 14000 nM.

And the Ki [2]?
The Ki was 19 nM.

What does the source list for `CCCC[C@H](NC(=O)OCC(C)C)C(=O)c1nnc(-c2ccco2)o1`?
Ki (Cathepsin K): 500 nM; Ki (Cathepsin B): 16000 nM; Ki (Procathepsin L): 14000 nM; Ki (Cathepsin S): 380 nM

For `O=C(CCCCCCNc1ccc2ccccc2c1)c1ncco1`, which IC50 [3] is on record?
Its IC50 is 430 nM.

For `N=C(N)NCCC[C@H](NC(=O)[C@@H]1CC[C@@H]2CC[C@@](N)(Cc3ccccc3)C(=O)N21)C(=O)c1nc2ccccc2s1`, which Ki (Prothrombin) is on record?
Its Ki is 0.85 nM.

And the bioavailability [1]?
Its bioavailability is 2%.

For `CN[C@H](Cc1ccccc1)C(=O)N1CCC[C@H]1C(=O)N[C@@H](CCCNC(=N)N)C(=O)c1nc2ccccc2n1C`, which Ki [4] is on record?
Its Ki is 290 nM.

Which results are given for `CN[C@H](Cc1ccccc1)C(=O)N1CCC[C@H]1C(=O)N[C@@H](CCCN=C(N)N)C(=O)c1nc2c(s1)CCCC2`?
Ki [4]: 4.4 nM; Ratio Ki [5]: 15

Which Ki [2] does the source give for `NCCCCC(NC(=O)[C@H](Cc1ccccc1)NC(=O)[C@@H](Cc1ccccc1)NS(=O)(=O)Cc1ccccc1)C(=O)c1nc2ccccc2s1` (stereo partly specified) here?
The Ki was 23 nM.

With `O=C(N[C@@H](CCc1ccccc1)C(=O)c1ncco1)[C@@H](CC(=O)N1CCOCC1)CC1CCCCC1` as the molecule, how does the Ki (Cathepsin S) read?
The Ki was < 100 nM.

For `COc1ccc(-c2csc(NC(=O)CCCCCCC(=O)c3ncco3)n2)cc1`, which IC50 [3] is on record?
The IC50 was 30 nM.

Which Ki (Cathepsin S) does the source give for `CC[C@H](NC(=O)[C@H](CS(=O)(=O)Cc1ccccc1)OC(=O)N1CCOCC1)C(=O)c1nc2ccccc2o1` here?
The Ki was < 10 nM.

Which Ki (Cathepsin K) does the source give for `CCCC[C@H](NC(=O)OCc1ccccc1)C(=O)c1nnc(-c2ccco2)o1` here?
The Ki was 3000 nM.

And the Ki (Cathepsin B)?
Its Ki is 34000 nM.

What about the Ki (Procathepsin L) of the same molecule?
The Ki was 28000 nM.

And the Ki (Cathepsin S)?
The Ki was 2000 nM.

With `O=C(CCCCCCC(=O)c1ncco1)Nc1cc2ccccc2[nH]1` as the molecule, how does the IC50 [3] read?
Its IC50 is 90 nM.

Which Ki [2] does the source give for `CC(=O)N[C@@H](CC(C)C)C(=O)N[C@@H](CCCN=C(N)N)C(=O)c1nc2ccccc2s1` here?
Its Ki is 41 nM.

For `O=C(c1nc2ccccc2s1)[C@@H]1CCCN1C(=O)[C@@H]1CCCN1OCc1ccccc1`, which IC50 (Prolyl endopeptidase) is on record?
Its IC50 is 5.6 nM.

For `CCCCCCCC/C=C\CCCCCCCC(=O)c1nnc(-c2ccccn2)o1`, which Selectivity ratio [6] is on record?
The Selectivity ratio was 5000.

With `O=C(CCCCCCOc1ccc(-c2ccccc2)cc1)c1ncc[nH]1` as the molecule, how does the IC50 [3] read?
The IC50 was > 50000 nM.

For `O=C(c1ccccn1)[C@@H]1CCCN1C(=O)[C@@H]1CCCN1CCCc1ccccc1`, which IC50 (Prolyl endopeptidase) is on record?
Its IC50 is 6.9 nM.

Which IC50 (Prolyl endopeptidase) does the source give for `O=C(C1=NCCS1)[C@@H]1CCCN1C(=O)[C@@H]1CCCN1CCCc1ccccc1` here?
Its IC50 is 3.8 nM.

What does the source list for `CCOC(=O)c1csc(C(=O)[C@H](CCCNC(=N)N)NC(=O)[C@@H]2CCCN2C(=O)[C@@H](Cc2ccccc2)NC)n1`?
Ki (Prothrombin): 4.5 nM; Ki [4]: 5.4 nM

For `CN[C@H](Cc1ccccc1)C(=O)N1CCC[C@H]1C(=O)N[C@@H](CCCNC(=N)N)C(=O)c1ccccn1`, which Ki [4] is on record?
The Ki was 73 nM.

With `CCCC(F)(F)C[C@H](NC(=O)N1CCOCC1)C(=O)N[C@@H](CC)C(=O)c1nc(C2CC2)no1` as the molecule, how does the Ki (Cathepsin S) read?
The Ki was < 100 nM.

With `O=C(CCCCCC(=O)c1ncco1)Nc1cccc(-c2ccccc2)c1` as the molecule, how does the IC50 [3] read?
Its IC50 is 310 nM.

With `CC(NC(=O)[C@H](CC(=O)N(C)C)NC(=O)[C@@H](NC(=O)CC(C)(C)C)C(C)(C)C)C(=O)c1nc2ccccc2s1` (stereo partly specified) as the molecule, how does the IC50 (Prolyl endopeptidase) read?
The IC50 was 9000 nM.

With `O=C(CCCCCCOc1ccc(-c2ccccc2)cc1)c1ncco1` as the molecule, how does the IC50 [3] read?
Its IC50 is 1000 nM.

With `O=C(c1ncc[nH]1)[C@@H]1CCCN1C(=O)[C@@H]1CCCN1CCCc1ccccc1` as the molecule, how does the IC50 (Prolyl endopeptidase) read?
The IC50 was 9 nM.

With `O=C(c1cncs1)[C@@H]1CCCN1C(=O)[C@@H]1CCCN1CCCc1ccccc1` as the molecule, how does the IC50 (Prolyl endopeptidase) read?
Its IC50 is 1100 nM.

Which results are given for `N=C(N)NCCC[C@H](NC(=O)[C@@H]1CCCN1C(=O)c1ccccc1)C(=O)c1nc2ccccc2s1`?
Ki [4]: 160 nM; Ki [2]: 250 nM

With `O=C(CCCCCCOc1ccc(-c2ccccc2)cc1)C1=NCCO1` as the molecule, how does the IC50 [3] read?
Its IC50 is 1000 nM.

Which Ki (Cathepsin K) does the source give for `CC(C)C[C@H](NC(=O)C1CCNCC1)C(=O)N[C@@H](CCc1ccccc1)C(=O)c1nc2cc(C(C)(C)C)ccc2o1` here?
The Ki was 8.5 nM.

And the Ki (Cathepsin B)?
Its Ki is 7000 nM.

What about the Ki (Procathepsin L) of the same molecule?
Its Ki is 70 nM.

What about the Ki (Cathepsin S) of the same molecule?
The Ki was 30 nM.

With `O=C(CCCCCCC(=O)c1ncco1)Nc1cccc(-c2ccccc2)c1` as the molecule, how does the IC50 [3] read?
Its IC50 is 60 nM.

Which Ki [4] does the source give for `CN[C@H](Cc1ccccc1)C(=O)N1CCC[C@H]1C(=O)N[C@@H](CCCNC(=N)N)C(=O)c1nccn1C` here?
The Ki was 5800 nM.
